Assay [1] in a line: preclinical studies of neuroprotective effects. Type of assay: in vivo. Conditions: compared to related neurosteroids. The source says:
(§1) ent-19-norprogesterone is a fully synthetic, non-naturally, occurring neurosteroid.

For assay [2], the system named is animal models of concussion. Nature of the assay: animal models of concussion. The assay is classed as in vivo.
From the text: as §1

Consider 1 compound from patent US20250186751A1, “BREATH-POWERED NASAL DEVICES FOR TREATMENT OF TRAUMATIC BRAIN INJURY (TBI), INCLUDING CONCUSSION, AND METHODS AND METHODS” (Odyssey Health, Inc., priority 2021, published 2025).

For the compound `CC(=O)[C@@H]1CCC2C3CCC4=CC(=O)CC[C@H]4C3CC[C@]21C` (single isomer, unassigned) [ent-19-norprogesterone, ent-19-norpregn-4-ene-3,20-dione], the neuroprotective effects entry in assay [1] was “equivalent, if not superior, neuroprotective effects compared to related neurosteroids”. In addition, the “behavioral pathology associated with brain injury symptoms such as memory impairment, anxiety, and motor/sensory performance” value in assay [2] is listed as “reduces the behavioral pathology”.
